Laboratory results taken from patent publication US5324648A, “Substituted isocoumarins as serine protease inhibitors and anti-inflammatory agents” (Georgia Tech Research Corporation, priority 1992, dated 1994).
Where two headings read alike, the source gives them in different places.

Experiments:
[1] = biological target: T1, bovine thrombin (Bos taurus, UniProt P00735); assay: Inactivation rate of bovine thrombin; type: biochemical; details: Table VIII; pH 7.5, 25° C; [I] 1.2-54 μM; read-out: kobs/[I]
T1 construct: bovine thrombin
Protocol: (§1) Inactivation rates of serine proteases by substituted isocoumarins were measured by the incubation method. An aliquot of inhibitor (25 or 50 μl) in Me2 SO was added to a buffered enzyme solution (0.01-2.3 μM) to initiate the inactivation. Aliquots (50 μl) were withdrawn at various intervals and the residual enzymatic activity was measured. Me2 SO concentration in the reaction mixture was 8-12% (v/v). 0.1 Hepes, 0.01M CaCl2, pH 7.5 buffer was utilized for trypsin and coagulation enzymes. 0.1M Hepes, 0.5M NaCl, pH 7.5 was utilized for other serine proteases. The inhibitor concentrations are shown in all the tables. Peptide thioesters or peptide nitroanilides with appropriate sequence were used as substrates for various serine proteases. All peptide thioester hydrolysis rates were measured with assay mixtures containing 4,4'-dithiodipyridine (ε324 =19800M^-1 cm^-1; Grasetti & Murray, Arch. Biochem. Biophys. 119, pp 41-49 (1967)). Peptide 4-nitroanilide nitroanilide hydrolysis was measured at 410 nm (ε410 =8800M^-1 cm^-1; Erlanger et al., Arch. Biochem. Biophys. 95, pp 271-278 (1961)). First order inactivation rate constant (kobs) were obtained from plots of ln (vt /vo) vs time, and the correlation coefficients were greater than 0.98.
(§2) ^a Conditions were as 0.1M Hepes, 0.01M CaCl2, pH 7.5 and 8-12%
(§3) Me2 SO and 25° C. Rate constants were measured by incubation
(§4) method unless otherwise noted. An aliquot of inhibitor was added to an
(§5) enzyme solution and aliquots removed with time and assayed for remaining
(§6) enzymatic activity. Firstorder rate constants, kobs were obtained
(§7) from the plots of ln(vt /vo) versus time.
(§8) ^a Inhibition rates were measured in 0.1M Hepes, 0.01M CaCl2, pH
(§9) 7.5 buffer, 8% Me2 SO and at 25° C.

[2] = biological target: T2, human factor Xa (Homo sapiens, UniProt P00742); assay: Inactivation rate of human factor Xa; type: biochemical; details: Table VIII; pH 7.5, 25° C; [I] 3.6-44 μM; read-out: kobs/[I]
T2 construct: human factor Xa
Protocol: as §1, §2, §3, §4, §5, §6, §7, §8, §9

[3] = biological target: T3, human thrombin (Homo sapiens, UniProt P00734); assay: Inactivation rate of human thrombin; type: biochemical; details: Table VIII; pH 7.5, 25° C; [I] 1.2-54 μM; read-out: kobs/[I]
T3 construct: human thrombin
Protocol: as §1, §8, §9

[4] = system: human lung tryptase; assay: Inactivation rate of human lung tryptase; type: biochemical; details: Table IX; for percentage of inhibition: not time dependent, at 0.34-5.0 μM; for kobs/[I]: pH 7.5, 25° C, [I] 0.42-0.47 μM
Protocol: as §1
^a Inactivation rates were measured at 0.1M Hepes, 0.5M NaCl, pH 7.5
buffer, 8% Me2 SO and 25° C.
as §8
(§10) 7.5 buffer for human plasmin; 25 mM Phosphate, 0.5M NaCl, 1 mM EDTA, pH
(§11) 7.5 buffer for rat skin tryptase and 0.1M Hepes, 0.5M NaCl, pH 7.5 for
(§12) human lung tryptase, human skin tryptase and rt-PA. All enzymes were
(§13) assayed with ZArg-SBzl (0.07 mM) in the presence of 4,4dithiodipyridine
(§14) (0.33 mM). Reaction mixtures contained 8% Me2 SO and assays were […]

[5] = biological target: T4, rat skin tryptase (Rattus norvegicus, UniProt P27435); assay: Inactivation rate of rat skin tryptase; type: biochemical; details: pH 7.5, Table IX; pH 7.5, 25° C; [I] 0.42-0.51 μM; read-out: kobs/[I]
T4 construct: from tissue; host or cells: rat skin
Protocol: as §1
^b Inactivation rates were measured at 25 mM phosphate, 0.5M NaCl, 1
mM EDTA, pH 7.5 buffer, 9% Me2 SO and 25° C.
as §8, §10, §11, §12, §13, §14

[6] = biological target: T5, porcine pancreatic elastase (PPE) (Sus scrofa, UniProt P00772); assay: Inactivation of porcine pancreatic elastase (PPE); type: biochemical; details: Table X; after 20 min incubation
T5 construct: from tissue; host or cells: porcine pancreas (from the name)
Protocol: (§15) Inactivation rates of serine proteases by substituted isocoumarins were measured by the incubation method. An aliquot of inhibitor (25 or 50 μl) in Me2 SO was added to a buffered enzyme solution (0.01-2.3 μM) to initiate the inactivation. Aliquots (50 μl) were withdrawn at various intervals and the residual enzymatic activity was measured. Me2 SO concentration in the reaction mixture was 8-12% (v/v). 0.1 Hepes, 0.01M CaCl2, pH 7.5 buffer was utilized for trypsin and coagulation enzymes. 0.1M Hepes, 0.5M NaCl, pH 7.5 was utilized for other serine proteases. […] Peptide thioesters or peptide nitroanilides with appropriate sequence were used as substrates for various serine proteases. All peptide thioester hydrolysis rates were measured with assay mixtures containing 4,4'-dithiodipyridine (ε324 =19800M^-1 cm^-1 ; Grasetti & Murray, Arch. Biochem. Biophys. 119, pp 41-49 (1967)). Peptide 4-nitroanilide nitroanilide hydrolysis was measured at 410 nm (ε410 =8800M^-1 cm^-1 ; Erlanger et al., Arch. Biochem. Biophys. 95, pp 271-278 (1961)). First order inactivation rate constant (kobs) were obtained from plots of ln (vt /vo) vs time, and the correlation coefficients were greater than 0.98.
(§16) ^a Inactivation rates were measured at 0.1M Hepes, 0.5 NaCl, pH 7.5,
(§17) 8-12% Me2 SO and 25° C. by incubation method.
(§18) ^a Inhibition rates were measured in 0.1M Hepes, 0.05M NaCl, pH 7.5
buffer, 8-9% Me2 SO and at 25° C.
(§19) ^a Inhibition constants were in 0.1M Hepes, 0.5M NaCl, pH 7.5 buffer,
8-9% Me2 SO and at 25° C.
(§20) ^a Inhibition rates were measured in 0.1M Hepes, 0.5M NaCl, 2.5%
Me2 SO, pH 7,5 and at 25° C.
(§21) ^a Inhibition was measured in 0.1M Hepes, 0.5M NaCl, pH 7.5 buffer,
(§22) 5-10% Me2 SO and at 25° C. Suc--Val--Pro--Phe--NA (0.48 mM)
(§23) was used as the substrate for chymotrypsin and cat G.
(§24) ^a Inhibition rates were measured in 0.1M Hepes, 0.5M NaCl, pH 7.5

[7] = biological target: T6, human leukocyte elastase (HLE) (Homo sapiens, UniProt P08246); assay: Inactivation of human leukocyte elastase (HLE); type: biochemical; details: Table X; pH 7.5, 25° C; [I] 2.1-42 μM; read-out: kobs/[I]
T6 construct: from tissue; host or cells: human leukocytes (from the name)
T6 sequence (P08246 30-267): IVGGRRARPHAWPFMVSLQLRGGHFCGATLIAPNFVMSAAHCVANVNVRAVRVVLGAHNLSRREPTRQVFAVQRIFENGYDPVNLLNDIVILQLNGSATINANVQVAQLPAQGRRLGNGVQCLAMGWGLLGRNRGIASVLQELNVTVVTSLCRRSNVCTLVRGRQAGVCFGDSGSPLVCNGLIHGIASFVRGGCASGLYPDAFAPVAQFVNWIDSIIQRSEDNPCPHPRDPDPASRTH
Protocol: as §15, §16, §17, §18
buffer, 8-9% Me2 SO and at 25° C.
as §19
8-9% Me2 SO and at 25° C.
as §20
Me2 SO, pH 7,5 and at 25° C.
as §21, §22, §23, §24

[8] = biological target: chymotrypsin (Bos taurus, UniProt P00766); assay: Inactivation of chymotrypsin; type: biochemical, bovine; details: Table X, read-out: kobs/[I]
[9] = biological target: T7, cathepsin G (Homo sapiens, UniProt P08311); assay: Inactivation of cathepsin G; type: biochemical; details: Table X; pH 7.5, 25° C; [I] 33-46 μM; read-out: kobs/[I]
T7 construct: from tissue; host or cells: human leukocytes
T7 sequence (P08311 21-255): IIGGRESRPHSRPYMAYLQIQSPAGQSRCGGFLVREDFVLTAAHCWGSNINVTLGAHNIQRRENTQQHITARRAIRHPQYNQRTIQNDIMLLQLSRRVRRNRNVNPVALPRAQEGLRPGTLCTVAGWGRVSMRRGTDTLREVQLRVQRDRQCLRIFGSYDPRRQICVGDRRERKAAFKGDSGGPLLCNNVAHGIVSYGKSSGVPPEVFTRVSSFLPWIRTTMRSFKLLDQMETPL

[10] = biological target: recombinant human tissue plasminogen activator (Homo sapiens, UniProt P00750); assay: Inactivation rate of recombinant human tissue plasminogen activator; type: biochemical; details: for percentage of inhibition: Table IX, not time dependent, at 0.34-5.0 μM; for kinact/KI: pH 7.5, Table IX, pH 7.5, 25° C, [I] 3.5-5.0 μM, read-out: kobs/[I]
Protocol: as §1
^a Inactivation constants were measured at 0.1M Hepes, 0.5M NaCl (or
as §8, §10, §11, §12, §13, §14

[11] = biological target: T8, bovine trypsin (Bos taurus, UniProt P00760); assay: Inactivation rate of bovine trypsin; type: biochemical; details: Table VIII; pH 7.5, 25° C; [I] 1.1-4.6 μM; read-out: kobs/[I]
T8 sequence (P00760 24-246): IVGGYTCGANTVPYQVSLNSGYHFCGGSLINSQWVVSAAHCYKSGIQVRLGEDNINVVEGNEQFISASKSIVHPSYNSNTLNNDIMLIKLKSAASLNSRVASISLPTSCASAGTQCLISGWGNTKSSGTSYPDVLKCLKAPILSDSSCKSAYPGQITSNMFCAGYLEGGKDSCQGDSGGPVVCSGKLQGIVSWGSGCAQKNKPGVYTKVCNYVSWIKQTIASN
Protocol: as §1, §2, §3, §4, §5, §6, §7, §8, §9

[12] = Spontaneous hydrolysis in Hepes buffer; type: physicochemical; details: 0.1 Hepes, 0.5M NaCl, pH 7.5, 9% Me2SO, 25° C
Protocol: ^a Conditions were 0.1 Hepes, 0.5M NaCl, pH 7.5 and 9% Me2 SO at
25° C. Spontaneous hydrolysis rates were measured
spectrophotometrically by monitoring the decrease in absorbance due to th
isocoumarin ring system (wavelength 335-380 nm) using the firstorder rate

[13] = biological target: T9, human factor XIIa (Homo sapiens, UniProt P00748); assay: Inactivation rate of human factor XIIa; type: biochemical; details: Table VIII; pH 7.5, 25° C; [I] 3.6-4.9 μM; read-out: kobs/[I]
T9 construct: human factor XIIa
T9 sequence (P00748 373-615 limits assumed): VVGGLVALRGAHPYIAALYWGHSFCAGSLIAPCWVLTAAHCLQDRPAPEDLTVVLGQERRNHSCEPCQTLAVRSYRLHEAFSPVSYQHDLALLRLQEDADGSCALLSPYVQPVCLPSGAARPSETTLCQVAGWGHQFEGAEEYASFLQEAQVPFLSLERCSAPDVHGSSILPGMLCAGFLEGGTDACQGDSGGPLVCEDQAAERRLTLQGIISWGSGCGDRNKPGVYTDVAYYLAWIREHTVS
T9 sequence (P00748 20-372 partner limits assumed): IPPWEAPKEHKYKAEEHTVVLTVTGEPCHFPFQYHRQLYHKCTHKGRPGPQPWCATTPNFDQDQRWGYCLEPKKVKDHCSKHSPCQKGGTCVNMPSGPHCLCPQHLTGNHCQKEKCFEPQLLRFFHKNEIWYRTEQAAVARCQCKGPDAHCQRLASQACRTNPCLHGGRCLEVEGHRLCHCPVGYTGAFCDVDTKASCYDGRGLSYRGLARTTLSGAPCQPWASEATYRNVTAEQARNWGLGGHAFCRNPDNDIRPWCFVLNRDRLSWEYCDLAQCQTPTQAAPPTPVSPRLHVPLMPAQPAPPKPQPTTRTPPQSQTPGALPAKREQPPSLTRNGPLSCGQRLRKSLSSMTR
Protocol: as §1, §2, §3, §4, §5, §6, §7, §8, §9

Sequence of recombinant human tissue plasminogen activator (P00750 36-562): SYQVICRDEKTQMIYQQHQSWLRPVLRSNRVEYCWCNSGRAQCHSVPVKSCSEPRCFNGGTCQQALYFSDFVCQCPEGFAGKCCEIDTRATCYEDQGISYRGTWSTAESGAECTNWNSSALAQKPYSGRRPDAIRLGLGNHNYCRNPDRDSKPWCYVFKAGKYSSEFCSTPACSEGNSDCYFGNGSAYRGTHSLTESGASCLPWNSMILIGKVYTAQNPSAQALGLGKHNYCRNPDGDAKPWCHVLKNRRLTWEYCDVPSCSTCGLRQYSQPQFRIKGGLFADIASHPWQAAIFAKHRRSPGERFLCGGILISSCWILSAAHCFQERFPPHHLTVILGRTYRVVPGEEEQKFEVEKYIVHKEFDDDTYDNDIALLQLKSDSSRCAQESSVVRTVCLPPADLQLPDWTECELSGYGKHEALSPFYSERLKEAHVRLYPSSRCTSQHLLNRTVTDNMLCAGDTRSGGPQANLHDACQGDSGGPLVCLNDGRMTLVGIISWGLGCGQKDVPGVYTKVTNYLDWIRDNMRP
T2 sequence (P00742 235-488 limits assumed): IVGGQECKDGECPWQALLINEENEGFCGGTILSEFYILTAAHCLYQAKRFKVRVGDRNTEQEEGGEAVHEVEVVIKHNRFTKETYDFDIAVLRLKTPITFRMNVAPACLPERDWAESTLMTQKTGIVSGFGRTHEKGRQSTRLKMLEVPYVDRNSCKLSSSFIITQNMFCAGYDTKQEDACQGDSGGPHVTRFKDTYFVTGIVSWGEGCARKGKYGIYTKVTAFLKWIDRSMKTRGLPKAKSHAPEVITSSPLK
T2 sequence (P00742 41-179 partner limits assumed): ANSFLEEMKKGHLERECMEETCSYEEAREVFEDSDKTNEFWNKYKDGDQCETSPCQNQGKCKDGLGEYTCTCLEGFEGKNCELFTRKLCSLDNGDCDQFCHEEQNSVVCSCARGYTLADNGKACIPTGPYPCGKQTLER
T4 sequence (P27435 29-273): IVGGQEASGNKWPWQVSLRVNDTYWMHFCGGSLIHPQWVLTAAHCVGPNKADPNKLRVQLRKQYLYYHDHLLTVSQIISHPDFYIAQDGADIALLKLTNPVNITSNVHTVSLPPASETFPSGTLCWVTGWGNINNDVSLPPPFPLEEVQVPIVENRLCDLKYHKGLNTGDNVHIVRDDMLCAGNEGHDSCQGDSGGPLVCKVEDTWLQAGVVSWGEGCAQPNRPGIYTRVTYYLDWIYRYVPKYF
T5 sequence (P00772 27-266): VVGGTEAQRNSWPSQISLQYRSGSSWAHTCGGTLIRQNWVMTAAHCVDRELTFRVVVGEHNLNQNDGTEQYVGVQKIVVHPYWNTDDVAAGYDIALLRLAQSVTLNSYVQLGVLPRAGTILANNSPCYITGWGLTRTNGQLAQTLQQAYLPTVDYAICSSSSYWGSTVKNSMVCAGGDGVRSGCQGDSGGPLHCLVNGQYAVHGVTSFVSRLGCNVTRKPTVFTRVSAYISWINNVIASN

SMILES	kinact/KI [1] [M⁻¹ s⁻¹]	kinact/KI [2] [M⁻¹ s⁻¹]	kinact/KI [3] [M⁻¹ s⁻¹]	percentage of inhibition [4] [%]	kinact/KI [5] [M⁻¹ s⁻¹]	percentage of inhibition [6] [%]	kinact/KI [7] [M⁻¹ s⁻¹]	kinact/KI ([8]; pH 7.5, 25° C, [I] 0.9-43 μM) [M⁻¹ s⁻¹]	kinact/KI [9] [M⁻¹ s⁻¹]	percentage of inhibition [10] [%]	kinact/KI [11] [M⁻¹ s⁻¹]	kinact/KI [10] [M⁻¹ s⁻¹]	t1/2 for spontaneous hydrolysis [12] [h]	kinact/KI [13] [M⁻¹ s⁻¹]	kobs/[I] [4]	kinact/KI ([8]; pH 7.5, second order rate, equal molar enzyme and inhibitor) [M⁻¹ s⁻¹]
C[C@H](N)C(=O)N[C@@H](C)C(=O)Nc1ccc2c(Cl)c(OCCSC(=N)N)oc(=O)c2c1 [Ala--Ala--NH-CiTEtOIC, 7-(L-alanyl-L-alanylamino)-4-chloro-3-(2-isothiureidoethoxy)isocoumarin]	1070	1490	880													
CC(C)(C)OC(=O)N[C@H](Cc1ccccc1)C(=O)Nc1ccc2c(Cl)c(OCCSC(=N)N)oc(=O)c2c1 [Boc-D-Phe--NH-CiTEtOIC, 7-(N-t-butyloxycarbonyl-D-phenylalanylamino)-4-chloro-3-(2-isothiureidoethoxy)isocoumarin]	1040		1090	44	135000	12	3100	220	35	65						
CC(C)(C)OC(=O)N[C@@H](Cc1ccccc1)C(=O)Nc1ccc2c(Cl)c(OCCSC(=N)N)oc(=O)c2c1 [Boc-L-Phe--NH-CiTEtOIC, 7-(N-t-butyloxycarbonyl-L-phenylalanylamino)-4-chloro-3-(2-isothiureidoethoxy)isocoumarin]	1090	1620	1140													
CC(=O)Nc1ccc2c(Cl)c(OCCCSC(=N)N)oc(=O)c2c1 [CH3 CONH-CiTPrOIC, 7-(acetylamino)-4-chloro-3-(3-isothiureidopropoxy)isocoumarin]	420		310	60	99000		200	5200	31		107000	7000	1.13			
N=C(N)SCCOc1oc(=O)c2cc(NC(=O)[C@@H](N)Cc3ccccc3)ccc2c1Cl [L-Phe--NH-CiTEtOIC, 7-(L-phenylalanylamino)-4-chloro-3-(2-isothiureidoethoxy)isocoumarin]	1280	3770	1340		650000			8400	53			13000		107000	260,000 M^-1 s^-1	
N=C(N)SCCCOc1oc(=O)c2cc(NC(=O)CCc3ccccc3)ccc2c1Cl [PhCH2 CH2 CONH-CiTPrOIC, 7-(3-phenylpropionylamino)-4-chloro-3-(3-isothiureidopropoxy)isocoumarin]	820		630		170000						87900	15000	1.1		180,000 M^-1 s^-1	
N=C(N)SCCOc1oc(=O)c2cc(NC(=O)Cc3ccccc3)ccc2c1Cl [PhCH2 CONH-CiTEtOIC, 7-(phenylacetylamino)-4-chloro-3-(2-isothiureidoethoxy)isocoumarin]	15800	3630	6730		120000					64				59000	110,000 M^-1 s^-1	
N=C(N)SCCCOc1oc(=O)c2cc(NC(=O)Cc3ccccc3)ccc2c1Cl [PhCH2 CONH-CiTPrOIC, 7-(phenylacetylamino)-4-chloro-3-(3-isothiureidopropoxy)isocoumarin]	600		610		145000		130		64		165000	9000	1.02		140,000 M^-1 s^-1	260000
